Tested on: Hepatitis B Virus (HBV)
Assay: Serum HBsAg levels in pHBV model mice (ELISA)
Assay type: in vivo
Design: key to Average HBsAg levels normalized to pre-treatment (day −1) and PBS control / Average HBsAg levels normalized to pre-treatment and PBS control: fraction of pre-treatment level, relative to PBS control mean
Conditions: for Average HBsAg levels normalized to pre-treatment (day −1) and PBS control: single s.c. injection day 1, Example 7; for Average HBsAg normalized to pre-treatment and PBS control: single s.c. injection on day 1; for Average HBsAg levels normalized to pre-treatment and PBS control (Group A used as control): 3.0 mg/kg, s.c. injection on day 1 and day 22, Example 10
Description: Six to eight-week-old female NOD.CB17-Prkdscid/NcrCrl (NOD-SCID) mice were transiently transfected in vivo with MC-HBV1.3 by hydrodynamic tail vein injection (Yang P L et al. “Hydrodynamic injection of viral DNA: a mouse model of acute hepatitis B virus infection,” PNAS USA 2002 Vol. 99: p. 13825-13830), administered 30 to 45 days prior to administration of an HBV RNAi agent or control. MC-HBV1.3 is a plasmid-derived minicircle that contains the same terminally redundant human hepatitis B virus sequence HBV1.3 as in plasmid pHBV1.3 and in the HBV1.3.32 transgenic mice (GenBank accession #V01460) (Guidotti L G et al., “High-level hepatitis B virus replication in transgenic mice,” J Virol 1995 Vol. 69, p 6158-6169.). 5 or 10 μg MC-HBV1.3 in Ringer's Solution in a total volume of 10% of the animal's body weight was injected into mice via tail vein to create pHBV model of chronic HBV infection. The solution was injected through a 27-gauge needle in 5-7 seconds as previously described (Zhang G et al., “High levels of foreign gene expression in hepatocytes after tail vein injection of naked plasmid DNA.” Human Gene Therapy 1999 Vol. 10, p 1735-1737.). At pre-dose (either day 1 pre-dose, day −1, or day −2), Hepatitis B surface antigen (HBsAg) HBsAg expression levels in serum were measured by ELISA and the mice were grouped according to average HBsAg expression levels.
HBV expression levels were normalized to pre-administration expression levels and to control mice injected with phosphate buffered saline (“PBS”).
Mice were anesthetized with 2-3% isoflurane and blood samples were collected from the submandibular area into serum separation tubes (Sarstedt AG & Co., Nümbrecht, Germany). Blood was allowed to coagulate at ambient temperature for 20 min. The tubes were centrifuged at 8,000×g for 3 min to separate the serum and stored at 4° C.
Serum was collected and diluted 10 to 8000-fold in PBS containing 5% nonfat dry milk. […] HBsAg levels were determined with a GS HBsAg EIA 3.0 kit (Bio-Rad Laboratories, Inc., Redmond, Wash.) as described by the manufacturer. Recombinant HBsAg protein, ayw subtype, also diluted in nonfat milk in PBS, was used as a primary standard (Aldevron).
HBsAg expression for each animal was normalized to the control group of mice injected with PBS in order to account for the non-treatment related decline in expression of MC-HBV1.3. First, the HBsAg level for each animal at a time point was divided by the pre-treatment level of expression in that animal in order to determine the ratio of expression “normalized to pre-treatment”. Expression at a specific time point was then normalized to the control group by dividing the “normalized to pre-treatment” ratio for an individual animal by the average “normalized to pre-treatment” ratio of all mice in the normal PBS control group.

## AD04776: HBV RNAi agent duplex AM05850-AS/AM06150-SS (antisense UACCAAUUUAUGCCUACAGCC; sense GGCUGUAGGCAUAAAUUGGUA; chemistry not fully specified)
Day 8, 1.0 mg/kg
  Average HBsAg levels normalized to pre-treatment (day −1) and PBS control: 0.279 ± 0.057
Day 8, 2.0 mg/kg
  Average HBsAg levels normalized to pre-treatment (day −1) and PBS control: 0.224 ± 0.018
Day 8, 2.0 mg/kg, Example 15
  Average HBsAg normalized to pre-treatment and PBS control: 0.339 ± 0.076
Day 8
  Average HBsAg levels normalized to pre-treatment and PBS control (Group A used as control): 0.197 ± 0.081
Day 8, 4.0 mg/kg
  Average HBsAg levels normalized to pre-treatment (day −1) and PBS control: 0.117 ± 0.069
Day 15, 1.0 mg/kg
  Average HBsAg levels normalized to pre-treatment (day −1) and PBS control: 0.245 ± 0.032
Day 15, 2.0 mg/kg
  Average HBsAg levels normalized to pre-treatment (day −1) and PBS control: 0.161 ± 0.009
Day 15, 2.0 mg/kg, Example 15
  Average HBsAg normalized to pre-treatment and PBS control: 0.414 ± 0.126
Day 15
  Average HBsAg levels normalized to pre-treatment and PBS control (Group A used as control): 0.308 ± 0.138
Day 15, 4.0 mg/kg
  Average HBsAg levels normalized to pre-treatment (day −1) and PBS control: 0.085 ± 0.039
Day 22, 1.0 mg/kg
  Average HBsAg levels normalized to pre-treatment (day −1) and PBS control: 0.374 ± 0.121
Day 22, 2.0 mg/kg
  Average HBsAg levels normalized to pre-treatment (day −1) and PBS control: 0.310 ± 0.016
Day 22, 2.0 mg/kg, Example 15
  Average HBsAg normalized to pre-treatment and PBS control: 0.385 ± 0.067
Day 22
  Average HBsAg levels normalized to pre-treatment and PBS control (Group A used as control): 0.476 ± 0.156
Day 22, 4.0 mg/kg
  Average HBsAg levels normalized to pre-treatment (day −1) and PBS control: 0.148 ± 0.045
Day 29, 1.0 mg/kg
  Average HBsAg levels normalized to pre-treatment (day −1) and PBS control: 0.304
Day 29, 2.0 mg/kg
  Average HBsAg levels normalized to pre-treatment (day −1) and PBS control: 0.482
Day 29, 2.0 mg/kg, Example 15
  Average HBsAg normalized to pre-treatment and PBS control: 0.450 ± 0.075
Day 29
  Average HBsAg levels normalized to pre-treatment and PBS control (Group A used as control): 0.246 ± 0.081
Day 29, 4.0 mg/kg
  Average HBsAg levels normalized to pre-treatment (day −1) and PBS control: 0.198
Day 36, 2.0 mg/kg, Example 15
  Average HBsAg normalized to pre-treatment and PBS control: 0.617 ± 0.116
Day 36
  Average HBsAg levels normalized to pre-treatment and PBS control (Group A used as control): 0.244 ± 0.097
Day 43, 2.0 mg/kg, Example 15
  Average HBsAg normalized to pre-treatment and PBS control: 0.643 ± 0.154
Day 43
  Average HBsAg levels normalized to pre-treatment and PBS control (Group A used as control): 0.179 ± 0.061
Day 50, 2.0 mg/kg, Example 15
  Average HBsAg normalized to pre-treatment and PBS control: 0.665 ± 0.199
Example 15, administered alone or in combination with AD04872, across each of the time points measured
  knockdown of HBsAg compared to PBS control: significant knockdown of HBsAg

## AD04982: HBV RNAi agent duplex AM06464-AS/AM06150-SS (antisense UACCAAUUUAUGCCUACAGCC; sense GGCUGUAGGCAUAAAUUGGUA; chemistry not fully specified)
Day 8, 1.0 mg/kg
  Average HBsAg levels normalized to pre-treatment (day −1) and PBS control: 0.519 ± 0.058
Day 8, 2.0 mg/kg
  Average HBsAg levels normalized to pre-treatment (day −1) and PBS control: 0.342 ± 0.062
Day 15, 1.0 mg/kg
  Average HBsAg levels normalized to pre-treatment (day −1) and PBS control: 0.375 ± 0.012
Day 15, 2.0 mg/kg
  Average HBsAg levels normalized to pre-treatment (day −1) and PBS control: 0.255 ± 0.046
Day 22, 1.0 mg/kg
  Average HBsAg levels normalized to pre-treatment (day −1) and PBS control: 0.422 ± 0.046
Day 22, 2.0 mg/kg
  Average HBsAg levels normalized to pre-treatment (day −1) and PBS control: 0.272 ± 0.122
Day 29, 1.0 mg/kg
  Average HBsAg levels normalized to pre-treatment (day −1) and PBS control: 0.525
Day 29, 2.0 mg/kg
  Average HBsAg levels normalized to pre-treatment (day −1) and PBS control: 0.314

From US20190255091A1, “RNAi AGENTS FOR [sequence] B VIRUS INFECTION” (priority 2016, published 2019)
